From patent US20240139142A1, “METHOD FOR PREVENTING OR TREATING LIVER DISEASE” (priority 2022, published 2024)
Where two headings read alike, the source gives them in different places. Each block holds one compound with its values, some of them ahead of it.

How the values were obtained:
[1] = test system: liver hepatocellular carcinoma cell line SNU-449; assay: MTS analysis, growth inhibition (GI50); format: cell-based; conditions: for GI50: Homo sapiens
[2] = test system: liver hepatocellular carcinoma cell line Mahlavu; assay: MTS analysis, growth inhibition (GI50); format: cell-based; conditions: read-out: GI50, Mahlavu liver hepatocellular carcinoma cell line
[3] = test system: wild-type liver hepatocellular carcinoma cell line SNU-499; assay: MTS assay cell viability IC50; format: cell-based
[4] = test system: wild-type liver hepatocellular carcinoma cell line Hep3B; assay: MTS assay cell viability IC50; format: cell-based; conditions: Homo sapiens
Description: (§1) In order to look for the biomarkers of drug resistance for liver hepatocellular carcinoma, liver hepatocellular carcinoma cell line Hep3B and SNU-449 were continually cultured in an environment with Sorafenib, and the concentration of Sorafenib was increased gradually. Specifically, broth containing 3.5 μM to 10.8 μM Sorafenib was used as a starting concentration (compared to the IC50 of the cell), and the concentration increased 0.5 μM every week until the Sorafenib-drug resistance-liver hepatocellular carcinoma cell line was established. […] With the same experimental procedures as described above, the Sorafenib-drug resistance-cell line was also cultured in a cell broth containing Regorafenib, and the cell viability was tested by MTS assay.

[5] = test system: Sorafenib-drug resistance-liver hepatocellular carcinoma cell line Hep3B; assay: MTS assay cell viability IC50; format: cell-based; conditions: Homo sapiens
Description: as §1

[6] = test system: Sorafenib-drug resistance-liver hepatocellular carcinoma cell line SNU-499; assay: MTS assay cell viability IC50; format: cell-based
Description: as §1

cancer cells = conditions: background statement; cited from earlier work
[7] = test system: Hepatitis B virus-induced ROS in Huh-7 cells; assay: Removal of HBV-induced ROS, DHE fluorescence; format: cell-based, human; conditions: Huh-7 transfected with pGEM C12, 5 μM PCH1152, 10 μM NAC
Description: To examine the effect of PCH1152, NAC or the combination thereof on removing HBV-induced ROS, the Huh-7 cells were remained untreated, or treated with 5 μM PCH1152, 10 μM NAC or 5 μM PCH 1152 plus 10 μM NAC. The ROS was examined by DHE fluorescence, and the difference between each group was compared by Tukey's Multiple Comparison Test.

[8] = test system: liver hepatocellular carcinoma cell line with Nexavar drug resistance; assay: Protein expression and apoptosis in drug-resistant cell line; format: cell-based
Description: WT: wild-type liver hepatocellular carcinoma cell line. R: Nexavar-drug resistance-liver hepatocellular carcinoma cell line.
After treating liver hepatocellular carcinoma cell line with Nexavar drug resistance by PCH1130 or PCH1152, the expressions of molecules such as USP22, ABCC1, ABCC2 and Twist in liver hepatocellular carcinoma may be decreased, and the expressions of cleaved Caspase-8 and PARP may be increased, which induced the apoptosis of liver hepatocellular carcinoma cells.

[9] = test system: human normal liver cell line THLE-2; assay: Western blot, apoptosis and ABCC2/Mcl-1/Twist expression; format: cell-based; conditions: low concentration
[10] = test system: SNU-449 liver hepatocellular carcinoma cell line; assay: as above; format: cell-based; conditions: low concentration
[11] = test system: SNU-449 liver hepatocellular carcinoma cell line; assay: Expression of ABCC2, Twist and Mcl-1 after treatment; format: cell-based; conditions: 2.5 μM, 64 hours
Description: (§2) The process of trans-differentiating epithelial cells into motile mesenchymal cells is called epithelial-mesenchymal transition (EMT). EMT is indispensable in development, wound healing and stem cell behavior, and may induce fibrosis and carcinogenesis pathologically. In addition, EMT plays an important role in liver fibrosis, liver cirrhosis and liver hepatocellular carcinoma. […] Moreover, EMT may increase the anti-apoptosis effect, which will result in the development of drug resistance in cancer treatment, and induce the development of stemness of the cancer cells, as well as increase the number of cancer stem cells. The cancer stem cell is one of the important factors in the progression, recurrence, metastasis and drug resistance of the cancer. There is an evidence that in the samples of the liver hepatocellular carcinoma patients with poor prognosis, the overexpressions of Twist and Snail were observed. […] The results above represent that isothiocyanate structural modified compound of the present disclosure may prevent liver carcinogenesis and the growth, invasion, metastasis, progression and recurrence of liver hepatocellular carcinoma via inhibiting epithelial-mesenchymal transition, anti-apoptosis and/or inhibiting drug resistance.

[12] = test system: Mahlavu liver hepatocellular carcinoma cell line; assay: as above; format: cell-based; conditions: 2.5 μM, 64 hours
Description: as §2

[13] = test system: mouse xenograft model of liver hepatocellular carcinoma; assay: Safety test, median lethal dose (LD50), intravenous injection; format: in vivo
Description: (§3) The mouse xenograft model of liver hepatocellular carcinoma was administered with different concentrations of PCH1152 or P1130 via intravenous injection, and the median lethal dose (LD50) was calculated by the number of death and dosage.

[14] = as above; format: in vivo; conditions: in vivo, mouse
Description: as §3

[15] = test system: SNU-449 liver hepatocellular carcinoma cell line; assay: Western blot of apoptosis markers (cleaved caspase 8, cleaved PARP); format: cell-based; conditions: 0.3 μM, 0, 24, 48 and 72 hours
Description: SNU-449 liver hepatocellular carcinoma cell line was treated by 0.3 μM isothiocyanate structural modified compounds P1130 and PCH1152, and natural isothiocyanate compound PEITC, and the control group was treated by DSMO. After extracting the proteins in the cells at different time points, such as 0, 24, 48 and 72 hours, analysis and comparison were performed by using western blot. […] The results represent that the two structural modified compounds described above effectively promoted the apoptosis of the liver hepatocellular carcinoma cells (FIG. 1).

[16] = test system: liver hepatocellular carcinoma cell line SNU-449; assay: MTS assay cell growth, selectivity test; format: cell-based; conditions: SNU-449 vs THLE-2, MTS assay
[17] = SNU-449, MTS analysis, read-out: GI50, SNU-449 liver hepatocellular carcinoma cell line
[18] = read-out: The IC50 of Sorafenib, wild-type liver hepatocellular carcinoma cell line
[19] = read-out: The IC50 of Regorafenib, wild-type liver hepatocellular carcinoma cell line

GI50 [1, 17]: 2.34 µM
GI50 ([2]; MTS analysis): 3.58 µM
IC50 [3, 18]: 7.89 µM
IC50 [4, 18]: 3.8 µM
IC50 ([5]; read-out: The IC50 of Sorafenib, drug resistance-liver hepatocellular carcinoma cell line): 10.9 µM
IC50 ([6]; SNU-499, read-out: The IC50 of Sorafenib, drug resistance-liver hepatocellular carcinoma cell line): 14.2 µM
Structure (SMILES): CNC(=O)c1cc(Oc2ccc(NC(=O)Nc3ccc(Cl)c(C(F)(F)F)c3)cc2)ccn1 [Sorafenib]

Structure (SMILES): S=C=NCc1ccccc1 [BITC, benzyl isothiocyanate]
GI50 [1, 17]: 9.58 µM
GI50 ([2]; MTS analysis): 3.84 µM
dose needed to have the inhibiting effect on cancer cells (cancer cells): ~10 mM

GI50 [1, 17]: 4.54 µM
GI50 ([2]; MTS analysis): 5 µM
IC50 [3, 19]: 3.66 µM
IC50 [4, 19]: 4.28 µM
IC50 ([5]; Sorafenib-resistant, read-out: The IC50 of Regorafenib, drug resistance-liver hepatocellular carcinoma cell line): 8.33 µM
IC50 ([6]; SNU-499, Sorafenib-resistant, read-out: The IC50 of Regorafenib, drug resistance-liver hepatocellular carcinoma cell line): 14.5 µM
Structure (SMILES): CNC(=O)c1cc(Oc2ccc(NC(=O)Nc3ccc(Cl)c(C(F)(F)F)c3)c(F)c2)ccn1 [Regorafenib]

Structure (SMILES): CC(=O)N[C@@H](CS)C(=O)O [NAC, N-acetylcysteine, reference compound]
HBV-induced ROS increasement [7]: significantly reduce

Structure (SMILES): COc1ccc(CCN=C=S)cc1 [P1130]
GI50 ([1]; SNU-449, read-out: GI50, SNU-449 liver hepatocellular carcinoma cell line): 0.64 µM
increase of the ability of inhibiting the growth of the liver hepatocellular carcinoma cell line ([1]; compared to natural isothiocyanate compounds BITC or PEITC): 12 times
GI50 [2]: 1.52 µM
effect on drug resistance in liver hepatocellular carcinoma [8]: reversing the drug resistance
expressions of USP22, ABCC1, ABCC2 and Twist [8]: decreased
expressions of cleaved Caspase-8 and PARP [8]: increased
apoptosis promotion and inhibition of ABCC2, Mcl-1, Twist in human normal liver cell line [9]: no such effect
apoptosis of liver hepatocellular carcinoma cell line [10]: promote apoptosis
expressions of ABCC2, Mcl-1 and Twist [10]: inhibit the expressions
expressions of ABCC2, Twist and Mcl-1 [11]: inhibition
expressions of ABCC2, Twist and Mcl-1 [12]: inhibition
toxicity relative to existing anticancer drug, e.g. Taxotere [13]: comparable
LD50 [14]: 100 to 300 mg/kg
expression levels of cleaved caspase 8 and cleaved PARP [15]: significantly increased

Structure (SMILES): S=C=NCCc1ccccc1 [PEITC, phenylethyl isothiocyanate, reference compound]
GI50 [1, 17]: 7.58 µM
GI50 ([2]; MTS analysis): 9.59 µM
expression levels of cleaved caspase 8 and cleaved PARP [15]: only slightly increased

Structure (SMILES): COc1cccc2c1C(=O)c1c(O)c3c(c(O)c1C2=O)C[C@@](O)(C(=O)CO)C[C@@H]3O[C@H]1C[C@H](N)[C@H](O)[C@H](C)O1 [Doxorubicin, reference compound]
selectivity between liver hepatocellular carcinoma cell and normal liver cell [16]: did not have selectivity
